The values that follow come from patent EP1685120B1, “COLOURING HYDROSOLUBLE YELLOW PREPARATION DERIVED FROM DIHYDROCHALCONES” (INSTITUT NATIONAL DE LA RECHERCHE AGRONOMIQUE, priority 2003, dated 2005).

Several values for one entry are separate records, joined by “and”; a condition that tells them apart may be missing. Equal values may be shown once. Read-outs that look alike come from different tables or passages of the source.

The conditions of data set [1]: sign only; other natural yellow colourants, source not given; cited from earlier work.
Data set [2] can be described thus: FRAP method (Ferric Reducing Antioxidant Power), aqueous medium, 10 min incubation (after Pulido et al., 2000). Type of data set: biochemical. Particulars: for TEAC: FRAP, Trolox equivalent, (SD); for EC1: antioxidant concentration with reducing power equivalent to 1 mmol/L FeSO4 7 H2O, 10 min incubation, mean of 3 (SD). On the procedure: (§1) Pour comparaison ou pour l'expression des résultats, les capacités antioxydantes des composés suivants ont été également mesurées : vitamine C (acide ascorbique), Trolox (analogue hydrosoluble de la vitamine E), (-)-épicatéchine, et phloridzine.
Tableau III - Mesure de la capacité antioxydante en milieu aqueux par la méthode FRAP pour 10 minutes d'incubation (d'après Pulido et al., 2000).

The conditions of data set [3]: values of Pulido et al. (2000); cited from earlier work.
Data set [4] in a line: DPPH method, antioxidant capacity in methanolic medium (after Brand-Williams et al., 1995). Type of data set: biochemical. Particulars: for TEAC (Trolox équivalent antioxidant capacity): DPPH, relative to Trolox; for capacité antioxydante: overall conclusion in words from DPPH and FRAP.
Description: as §1
Les résultats sont présentés dans les tableaux II et III ci dessous.

For another data set, the system named is cellules TC-7. The data set can be described thus: Cytotoxicity test, cell viability by neutral red method. Type of data set: cell-based. The note with it: for % Témoin / DO Moyenne: 2 h; for % Témoin: cell viability; for DO Moyenne: mean of 5. The protocol: Cellules TC-7 (sous clone de caco-2) cultivées sur nacelles (membrane en polyéthylène téréphtalate), utilisées à 21 jours de confluence, fournie par Bioprédic International
Emploi des cellules au passage 21.
Pas de solvant utilisé pour la solubilisation des produits à l'essai.
Système réactionnel : cultures de cellules TC-7 incubées en présence des produits à l'essai aux différentes concentrations citées ci-dessus.
Temps d'incubation : 2 heures. [drawing 6] ↑ : incubation des produits à l'essai ? : évaluation des effets Replicate : 5 par concentrations. Température d'incubation : 37°C. Autres conditions : atmosphère humide contenant 5 % de CO2.
Témoin : correspondant aux cellules incubées en absence de produit à l'essai [drawing 8] Replicate : 10
Viabilité cellulaire mesurée selon la méthode du rouge neutre après incubation avec les produits à l'essai : • incubation en présence de rouge neutre pendant 3 heures • lyse des cellules et lecture de la densité optique avec un spectrophotomètre à 540 nm (la densité optique du rouge neutre est proportionnelle au nombre de cellules vivantes).
Expression des résultats : en unités arbitraires de D.O.(densité optique) par échantillon et en pourcentage de variation par rapport au groupe témoin.

The nature of data set [5]: Molar extinction coefficient (UV-visible). It counts as physicochemical. An excerpt: Une solution à 20 ppm de ce composéest jaune intense.
Le spectre UV-visible d'une solution de préparation POP a été mesuré pour différents pH entre 2 et 8 (voir figure 1). Des mesures de couleur (chromamètre Minolta) ont également été réalisées dans cette zone de pH. Les résultats détaillés des paramètres colorimétriques sont consignés ci-après.

A short description of data set [6]: Colorimetric parameters CIE L*a*b* (Minolta CM-3600d spectrophotometer) in Mc Ilvaine buffer. Type of data set: physicochemical. Further details: key to L* : luminosité / a* : axe vert-rouge / b* : axe bleu-jaune: CIE L*a*b* coordinates (illuminant D65, 10° observer). The text has this: Les paramètres de coloration du colorant par rapport à de l'eau distillée (référence) ont été mesurés en solution dans un tampon de M^c Ilvaine (citrate-phosphate) à différents pH (2,2 à 8) et ce, pour plusieurs concentrations.
Les mesures ont été réalisées à l'aide d'un spectrophotomètre Minolta CM-3600d (©1998 Minolta Co., Ltd. Japon) avec la plaque de calibration (Minolta n° 13171008). Le spectrophotomètre équipé d'un logiciel de retraitement SpectraMagic V 3.60G (Cyberchrome Inc Minolta Co. Ltd), a été paramétré pour utiliser l'espace colorimétrique CIE L*a*b (Figure 2), avec l'illuminant D65-10° (D65-A-F2), et l'observateur moyen normalisé 10° CIE 1964 (sensibilité d'un oeil moyen). A partir des valeurs a* et b* nous avons calculé les coordonnées polaires C* = sqrt(((a*))^2 + ((b*))^2) et h = tan g^-1 ((a*)/(b*)) × (180)/(Pi) [formula] Dans la suite du texte nous exploiterons principalement ces coordonnées polaires C* et h, car elles ont chacune une signification colorimétrique : C* est la distance au centre de l'espace et correspond à la saturation de la couleur alors que h est un angle (exprimé ici en degré) qui définit la teinte. A titre indicatif pour la couleur rouge la teinte se situe au voisinage de 0°, pour le jaune environ 90°, pour le vert 180° et pour le bleu 270°. La valeur L* est utilisée telle quelle et exprime la clarté.

Data set [7] is described as follows: Optical density at 420 nm of the esterification reaction medium (colouring capacity). It counts as physicochemical. The note with it: unpurified POP fraction incubated with acidified alcohol, 50 °C, 1 h. An excerpt:
Le volume d'alcool est ajusté de façon à avoir une concentration finale en fraction POP de 1 g.L^-1. Les alcools suivants ont été testés : méthanol, propanol-1, propanol-2, butanol-1, butanol-3, hexanol-1, octanol-1.
Confirmation de la conversion en esters : la formation des esters correspondant a été montrée par HPLC couplée à la spectrométrie de masse en mode négatif et avec également en série une détection à 420 nm (jaune). […] Tableau I: Temps de rétention chromatographique, ions pseudo-moléculaires et rendements de conversion du composé de formule I-b-1 et de ses dérivés estérifiés.

The mark [8] stands for this setting: 5 mg/L, pH 3, tampon de Mc Ilvaine.
The mark [9] stands for this setting: 10 mg/L, pH 3, tampon de Mc Ilvaine.
The mark [10] stands for this setting: 20 mg/L, pH 3, tampon de Mc Ilvaine.
Setting [11] is: 40 mg/L, pH 3, tampon de Mc Ilvaine.
[12] abbreviates: 100 mg/L, pH 3, tampon de Mc Ilvaine.
Where [13] appears, read: pH 2,2, env. 20 mg/L, tampon de Mc Ilvaine.
The mark [14] stands for this setting: pH 3, env. 20 mg/L, tampon de Mc Ilvaine.
[15] abbreviates: pH 4, env. 20 mg/L, tampon de Mc Ilvaine.
Where [16] appears, read: pH 5, env. 20 mg/L, tampon de Mc Ilvaine.
Setting [17] is: pH 6, env. 20 mg/L, tampon de Mc Ilvaine.
[18] abbreviates: pH 7, env. 20 mg/L, tampon de Mc Ilvaine.
The mark [19] stands for this setting: pH 8, env. 20 mg/L, tampon de Mc Ilvaine.

Consider `COc1cc(/C=C/C(=O)CC(=O)/C=C/c2ccc(O)c(OC)c2)ccc1O` [curcumine], for which, in data set [1], the “logP (P coeff. de partage [n-octanol/eau])” value was “positif”.
Turning to `Cc1c(C)c2c(c(C)c1O)CCC(C)(C(=O)O)O2` (stereo not drawn) [Trolox], in data set [2], the TEAC is on record as 1.00 (0.02); the EC1 was 411 µmol/L and 411 (10) µmol/L. For the same molecule, in data set [3], the EC1 is recorded as 322. Also, the “TEAC (Trolox équivalent antioxidant capacity)” value in data set [4] is 1,00.
Take `O=C(O)CCc1cc(O)c(O)cc1-c1c(O)cc(O)cc1C1O[C@H](CO)[C@@H](O)[C@H](O)[C@H]1O` (stereo partly drawn) [I-a-1, acide 3-(4,5,4',6'-tetrahydroxy-2'-glucosyl-biphenyl-2-yl)-propionique]: the EC1 in data set [2] is listed as 477 (15) µmol/L. Moreover, in data set [4], the “TEAC (Trolox équivalent antioxidant capacity)” value is 0,78 and the capacité antioxydante entry is “capacité antioxydante importante”. Also, the “capacité antioxydante, fold over phloridzine” value in data set [4] (overall conclusion from DPPH and FRAP) stood at 10 fois.
On to “acide 3-(4'-hydroxy-2'-glucosyl-4,5-dioxo-3,6-dihydro-2H-dibenzofuran-2-yl)-propionique [I-b-1]”, for which the “% Témoin” value with cellules TC-7 (20 µM) amounted to 101%; in the data set with cellules TC-7 (100 µM), 104%; in the data set on cellules TC-7 (200 µM) it was 96%; in the data set with cellules TC-7 (1000 µM) it was 104%; in the data set on cellules TC-7 (2000 µM) it was 93%. The “DO Moyenne” value is listed as 0,489 in the data set on cellules TC-7 (20 µM); 0,504 in the data set on cellules TC-7 (100 µM); 0,467 with cellules TC-7 (200 µM); 0,504 in the data set with cellules TC-7 (1000 µM); 0,448 in the data set on cellules TC-7 (2000 µM). The “effet sur la viabilité cellulaire” value in the data set with cellules TC-7 (1000 µM) was “une légère diminution de la viabilité cellulaire”; with cellules TC-7 (at the tested concentrations (20-2000 µM)), “n'a pas eu d'effet sur la viabilité cellulaire”; in the data set on cellules TC-7 (jusqu'à 200 µM), “Aucun effet inhibiteur de référence n'a été noté”. Besides, in data set [5] (420 nm à pH 3, estimated), the “coefficient d'extinction molaire” value is 17400 mol⁻¹ cm⁻¹. In data set [5] (pH 3), the “coefficient d'extinction molaire ε” value is reported as 17 400 DO.mol^-1.L^-2.cm^-1. Besides, the “L* : luminosité” value in data set [6] (setting [8]) is reported as 99,6; in data set [6] (setting [9]), 99,3; in data set [6] (setting [10]), 98,7; in data set [6] (setting [11]), 97,9; in data set [6] (setting [12]) it was 96,5; in data set [6] (setting [13]) it was 98,7. Further, the “L* : luminosité” value is given as 98,5 in data set [6] (setting [14]); 98,4 in data set [6] (setting [15]); 97,5 in data set [6] (setting [16]); 93,5 in data set [6] (setting [17]); 88,1 in data set [6] (setting [18]); 87,1 in data set [6] (setting [19]). In addition, the “Teinte CIE” value in data set [6] (setting [8]) was 3,5; in data set [6] (setting [9]) it was 6,7; in data set [6] (setting [10]), 11,1; in data set [6] (setting [11]), 14,3; in data set [6] (setting [12]) it was 10,4; in data set [6] (setting [13]) it was 11,2. The “Teinte CIE” value in data set [6] (setting [14]) was 11,0; in data set [6] (setting [15]), 10,2; in data set [6] (setting [16]) it was 5,9; in data set [6] (setting [17]), -20,5; in data set [6] (setting [18]) it was -63,5; in data set [6] (setting [19]), -71,8. The “Teinte CIE” value in data set [6] (pH inférieur à 5-6 (yellow)) is on record as 10; in data set [6] (pH supérieurs (orange)), -50. Besides, the “a* : axe vert-rouge” value in data set [6] (setting [8]) is listed as -4,6; in data set [6] (setting [9]), -8,5; in data set [6] (setting [10]) it was -13,6; in data set [6] (setting [11]), -17,7; in data set [6] (setting [12]) it was -17,8; in data set [6] (setting [13]) it was -13,5. The “a* : axe vert-rouge” value in data set [6] (setting [14]) was -13,4; in data set [6] (setting [15]), -13,2; in data set [6] (setting [16]) it was -11,4; in data set [6] (setting [17]) it was -0,1; in data set [6] (setting [18]), 16,3; in data set [6] (setting [19]), 19,5. Besides, the “b* : axe bleu-jaune” value in data set [6] (setting [8]) is 11,5; in data set [6] (setting [9]), 22,8; in data set [6] (setting [10]) it was 41,5; in data set [6] (setting [11]) it was 67,1; in data set [6] (setting [12]), 96,0; in data set [6] (setting [13]), 40,7. In addition, the “b* : axe bleu-jaune” value is recorded as 41,1 in data set [6] (setting [14]); 42,3 in data set [6] (setting [15]); 46,7 in data set [6] (setting [16]); 57,7 in data set [6] (setting [17]); 71,4 in data set [6] (setting [18]); 72,2 in data set [6] (setting [19]). Further, the “TEAC (Trolox équivalent antioxidant capacity)” value in data set [4] is given as 0,09. Moreover, the capacité antioxydante entry in data set [4] is “faible capacité antioxydante”. In addition, in data set [7], the “DO 420 nm (jaune) du milieu réactionnel dilué à 0,1 g/l” value is on record as 0,973.
As for `Oc1cc(O)c2c(c1)O[C@H](c1ccc(O)c(O)c1)[C@H](O)C2` [(-)-épicatéchine], in data set [2], the TEAC is 1.14 (0.03); the EC1 was 359 µmol/L and 359 (11) µmol/L. Moreover, in data set [3], the EC1 is recorded as 348. The “TEAC (Trolox équivalent antioxidant capacity)” value in data set [4] is reported as 1,12.
For `O=C1O[C@H]([C@@H](O)CO)C(O)=C1O` [Vitamine C, acide ascorbique], in data set [2], the TEAC was 1.03 (0.02). Also, the EC1 in data set [2] is given as 400 (9) µmol/L; in data set [2] (listed as vitamine C), 400 µmol/L; in data set [3] it was 392. Moreover, the “TEAC (Trolox équivalent antioxidant capacity)” value in data set [4] is 0,98.
In the case of `O=C(CCc1ccc(O)cc1)c1c(O)cc(O)cc1O[C@@H]1O[C@H](CO)[C@@H](O)[C@H](O)[C@H]1O` [Phloridzine, phloridzine, reference compound], the TEAC in data set [2] is recorded as 0.08 (0.00). Also, in data set [4], the “TEAC (Trolox équivalent antioxidant capacity)” value is reported as 0,09 and the capacité antioxydante entry is on record as “très faible”.
For `O=c1c(O)c(-c2ccc(O)c(O)c2)oc2cc(O)cc(O)c12` [quercétine], the “logP (P coeff. de partage [n-octanol/eau])” value in data set [1] was “positif”.
